# Results reported in the supplement of paper PMC10307832.
# Experiments:
# Assay in all cases: relative viability (nuclei count vs DMSO), 5 days (fraction); higher = more cells survive
# Elesclomol + Palbociclib = compound: CN(NC(=O)CC(=O)NN(C)C(=S)c1ccccc1)C(=S)c1ccccc1 [Elesclomol] + CC(=O)c1c(C)c2cnc(Nc3ccc(N4CCNCC4)cn3)nc2n(C2CCCC2)c1=O [Palbociclib] (partner 0.5 µM)
# In short: (§1)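 One day after seeding in 1536-well plates, lung cancer cell lines were dosed by pin tool. Dosing was either single-drug or a fixed anchor-drug dose plus five library-drug doses (not always all listed) in √10 steps. After 5 days, nuclei were stained in one fix-and-stain step and counted on 4× images, and relative viability is the nuclei count of treated wells over that of vehicle wells, given as the median of duplicate plates.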
# Elesclomol + Lapatinib = compound: CN(NC(=O)CC(=O)NN(C)C(=S)c1ccccc1)C(=S)c1ccccc1 [Elesclomol] + CS(=O)(=O)CCNCc1ccc(-c2ccc3ncnc(Nc4ccc(OCc5cccc(F)c5)c(Cl)c4)c3c2)o1 [Lapatinib] (partner 2 µM)
# In short: as §1
# Elesclomol + Phenformin = compound: CN(NC(=O)CC(=O)NN(C)C(=S)c1ccccc1)C(=S)c1ccccc1 [Elesclomol] + N=C(N)NC(=N)NCCc1ccccc1 [Phenformin] (partner 250 µM)
# In short: as §1
# Elesclomol + Olaparib = compound: CN(NC(=O)CC(=O)NN(C)C(=S)c1ccccc1)C(=S)c1ccccc1 [Elesclomol] + O=C(c1cc(Cc2n[nH]c(=O)c3ccccc23)ccc1F)N1CCN(C(=O)C2CC2)CC1 [Olaparib] (partner 8 µM)
# In short: as §1
# Elesclomol + Pemetrexed = compound: CN(NC(=O)CC(=O)NN(C)C(=S)c1ccccc1)C(=S)c1ccccc1 [Elesclomol] + Nc1nc2[nH]cc(CCc3ccc(C(=O)N[C@@H](CCC(=O)O)C(=O)O)cc3)c2c(=O)[nH]1 [Pemetrexed] (partner 0.2 µM)
# In short: as §1
Cell Line,relative viability (Elesclomol + Palbociclib; first compound 0.003162 µM),relative viability (Elesclomol + Palbociclib; first compound 0.01 µM),relative viability (Elesclomol + Palbociclib; first compound 0.03162 µM),relative viability (Elesclomol + Palbociclib; first compound 0.1 µM),relative viability (Elesclomol + Lapatinib; first compound 0.003162 µM),relative viability (Elesclomol + Lapatinib; first compound 0.01 µM),relative viability (Elesclomol + Lapatinib; first compound 0.03162 µM),relative viability (Elesclomol + Lapatinib; first compound 0.1 µM),relative viability (Elesclomol + Phenformin; first compound 0.003162 µM),relative viability (Elesclomol + Phenformin; first compound 0.01 µM),relative viability (Elesclomol + Phenformin; first compound 0.03162 µM),relative viability (Elesclomol + Phenformin; first compound 0.1 µM),relative viability (Elesclomol + Olaparib; first compound 0.003162 µM),relative viability (Elesclomol + Olaparib; first compound 0.01 µM),relative viability (Elesclomol + Olaparib; first compound 0.03162 µM),relative viability (Elesclomol + Olaparib; first compound 0.1 µM),relative viability (Elesclomol + Pemetrexed; first compound 0.003162 µM),relative viability (Elesclomol + Pemetrexed; first compound 0.01 µM),relative viability (Elesclomol + Pemetrexed; first compound 0.03162 µM),relative viability (Elesclomol + Pemetrexed; first compound 0.1 µM)
NCI-H3122,0.161,0.205,0.167,0.105,0.999,0.989,0.978,0.434,0.325,0.274,0.261,0.219,0.606,0.665,0.563,0.105,0.177,0.229,0.194,0.128
PC-3 [JPC-3],0.609,0.495,0.456,0.411,0.43,0.386,0.519,0.405,0.474,0.474,0.496,0.401,1.13,0.968,0.728,0.627,1.04,0.714,0.518,0.499
PC-14,0.317,0.0274,0.02,0.0209,0.337,0.295,0.228,0.0843,0.404,0.16,0.0586,0.023,0.287,0.0846,0.0176,0.0205,0.14,0.0457,0.0214,0.0198
RERF-LC-KJ,0.911,0.714,0.581,0.288,0.909,0.756,0.398,0.299,0.341,0.347,0.267,0.218,0.613,0.473,0.326,0.323,0.412,0.369,0.332,0.268
SK-LU-1,0.35,0.305,0.344,0.388,0.908,0.518,0.333,0.105,0.643,0.287,0.305,0.161,0.468,0.373,0.378,0.249,1.01,0.889,0.625,0.521
SK-MES-1,0.325,0.291,0.221,0.184,0.563,0.446,0.429,0.325,0.644,0.456,0.506,0.421,0.713,0.656,0.339,0.231,0.982,0.597,0.524,0.415
SW 1573,0.269,0.104,0.0985,0.0326,1.04,0.517,0.185,0.135,0.274,0.114,0.159,0.0405,0.201,0.146,0.0695,0.0085,0.464,0.158,0.115,0.0205
UMC-11,0.321,0.275,0.29,0.249,0.952,0.837,0.505,0.328,0.312,0.343,0.328,0.31,0.54,0.338,0.279,0.266,0.806,0.655,0.478,0.336
